Holding throughout (type): in vivo
For data set [1], the system named is Beet Armyworm (Spodoptera exigua, LAPHEG). Kind of data set: Bioassay on Beet Armyworm (BAW), 128-well diet tray assay. The following applies: 168 h, 50 μg/cm^2 on artificial diet, second instar larvae, 25° C., five to seven days, average of eight wells, read-out: BAW % Control (or Mortality) rating. In short, it runs like this: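 Second-instar larvae, one to five per well, fed artificial diet surface-treated with 50 μg/cm^2 test molecule in 90:10 acetone-water, dried before infestation; eight wells per molecule. Held at 25 °C, 14:10 light-dark for five to seven days; percent mortality averaged over wells.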

Data set [2] relates to Cabbage Looper (Trichoplusia ni, TRIPNI). Kind of data set: Bioassay on Cabbage Looper (CL), 128-well diet tray assay. The settings on record: 168 h, 50 μg/cm^2 on artificial diet, second instar larvae, 25° C., five to seven days, average of eight wells, read-out: CL % Control (or Mortality) rating. In short, it runs like this: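 Second-instar larvae (one to five per well) placed on artificial diet treated with 50 μg/cm^2 test molecule in 90:10 acetone-water, dried; eight wells per molecule. Held at 25° C., 14:10 light-dark, for five to seven days. Percent mortality scored per well and averaged over the eight wells.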

Data set [3] has as its system Yellow Fever Mosquito (Aedes aegypti, AEDSAE). The settings on record: about 1 day-old larvae, master plate 4000 ppm solution diluted, room temperature, scored after 3 days. As to the method: Example B: Bioassays on Yellow Fever Mosquito (Aedes aegypti, AEDSAE (“YFM”)
Certain molecules disclosed in this document were tested against YFM using procedures described in the following paragraph. In the reporting of the results, the “YFM Rating Table” was used (See Table Section).
Master plates containing 400 μg of a molecule dissolved in 100 μL of dimethyl sulfoxide (DMSO) (equivalent to a 4000 ppm solution) are used. A master plate of assembled molecules contains 15 μL per well. To this plate, 135 μL of a 90:10 water/acetone mixture is added to each well. A robot (Biomek® NXP Laboratory Automation Workstation) is programmed to dispense 15 μL aspirations from the master plate into an empty 96-well shallow plate (“daughter” plate). There are 6 reps (“daughter” plates) created per master. The created “daughter” plates are then immediately infested with YFM larvae.
The day before plates are to be treated, mosquito eggs are placed in Millipore water containing liver powder to begin hatching (4 g into 400 mL). After the “daughter” plates are created using the robot, they are infested with 220 μL of the liver powder/larval mosquito mixture (about 1 day-old larvae). After plates are infested with mosquito larvae, a non-evaporative lid is used to cover the plate to reduce drying. Plates are held at room temperature for 3 days prior to grading. After 3 days, each well is observed and scored based on mortality. The results are indicated in the table entitled “Table ABC: Biological Results” (See Table Section).

As usually defined, the mortality is the share of the test organisms that died. On to `Cc1ccc(OC(C)(C)C)c(N2C(=O)CS/C2=N\C(=O)Nc2ccc(CCc3ncn(-c4ccc(OC(F)(F)F)cc4)n3)cc2)c1` [F14, (Z)-1-(3-(2-(tert-Butoxy)-5-methylphenyl)-4-oxothiazolidin-2-ylidene)-3-(4-(2-(1-(4-(trifluoromethoxy)phenyl)-1H-1,2,4-triazol-3-yl)ethyl)phenyl)urea], for which the mortality at 50 µg/cm2 in data set [1] and in data set [2] was 50 to 100% in each case. The “YFM % Control (or Mortality) rating” value in data set [3] is “A (80-100)”.
With `Cc1ccc(C(C)C)c(N2C(=O)CS/C2=N\C(=O)Nc2ccc(CC(C)c3ncn(-c4ccc(OC(F)(F)F)cc4)n3)cc2)c1` (centres unmarked) [F15, (Z)-1-(3-(2-Isopropyl-5-methylphenyl)-4-oxothiazolidin-2-ylidene)-3-(4-(2-(1-(4-(trifluoromethoxy)phenyl)-1H-1,2,4-triazol-3-yl)propyl)phenyl)urea], the mortality at 50 µg/cm2 in data set [1] and in data set [2] was 50 to 100% throughout. Further, the “YFM % Control (or Mortality) rating” value in data set [3] is reported as “A (80-100)”.
For `Cc1ccc(C(C)C)c(N2C(=O)CS/C2=N\C(=O)Nc2ccc(CCc3ncn(-c4ccc(OC(F)(F)F)cc4)n3)c(F)c2)c1` [F23, (Z)-1-(3-Fluoro-4-(2-(1-(4-(trifluoromethoxy)phenyl)-1H-1,2,4-triazol-3-yl)ethyl)phenyl)-3-(3-(2-isopropyl-5-methylphenyl)-4-oxothiazolidin-2-ylidene)urea], the mortality at 50 µg/cm2 in data set [1] and in data set [2] was 50 to 100% in each case. Besides, the “YFM % Control (or Mortality) rating” value in data set [3] was “A (80-100)”.
Turning to `CCCc1ccc(C)cc1N1C(=O)CS/C1=N\C(=O)Nc1ccc(CCc2ncn(-c3ccc(OC(F)(F)F)cc3)n2)cc1F` [F26, (Z)-1-(2-Fluoro-4-(2-(1-(4-(trifluoromethoxy)phenyl)-1H-1,2,4-triazol-3-yl)ethyl)phenyl)-3-(3-(5-methyl-2-propylphenyl)-4-oxothiazolidin-2-ylidene)urea], the mortality at 50 µg/cm2 in data set [1] and in data set [2] was 50 to 100% in each case. For the same compound, the “YFM % Control (or Mortality) rating” value in data set [3] is recorded as “A (80-100)”.
With `CC(C)c1ccc(C(F)(F)F)cc1N1C(=O)CS/C1=N\C(=O)Nc1ccc(/C=C/c2ncn(-c3ccc(OC(F)(F)F)cc3)n2)cc1F` [F64, 1-(2-fluoro-4-((E)-2-(1-(4-(trifluoromethoxy)phenyl)-1H-1,2,4-triazol-3-yl)vinyl)phenyl)-3-((Z)-3-(2-isopropyl-5-(trifluoromethyl)phenyl)-4-oxothiazolidin-2-ylidene)urea], the mortality at 50 µg/cm2 in data set [1] and in data set [2] was 50 to 100% in each case.
As to `CC(C)c1ccc(C(F)(F)F)cc1N1C(=O)CS/C1=N\C(=O)Nc1ccc(/C=C/c2ncn(-c3ccc(OC(F)(F)F)cc3)n2)cc1` [F65, 1-((Z)-3-(2-isopropyl-5-(trifluoromethyl)phenyl)-4-oxothiazolidin-2-ylidene)-3-(4-((E)-2-(1-(4-(trifluoromethoxy)phenyl)-1H-1,2,4-triazol-3-yl)vinyl)phenyl)urea], the mortality at 50 µg/cm2 in data set [1] and in data set [2] was 50 to 100% in each case.
Take `Cc1ccc(C2CC2(F)F)c(N2C(=O)CS/C2=N\C(=O)Nc2ccc(/C=C/c3ncn(-c4ccc(OC(F)(F)F)cc4)n3)cc2)c1` (centres unmarked) [F66, 1-((Z)-3-(2-(2,2-Difluorocyclopropyl)-5-methylphenyl)-4-oxothiazolidin-2-ylidene)-3-(4-((E)-2-(1-(4-(trifluoromethoxy)phenyl)-1H-1,2,4-triazol-3-yl)vinyl)phenyl)urea]: the mortality at 50 µg/cm2 in data set [1] and in data set [2] was 50 to 100% in each case.
With `Cc1ccc(C2CC2(F)F)c(N2C(=O)CS/C2=N\C(=O)Nc2ccc(/C=C/c3ncn(-c4ccc(OC(F)(F)F)cc4)n3)cc2F)c1` (centres unmarked) [F67, 1-((Z)-3-(2-(2,2-difluorocyclopropyl)-5-methylphenyl)-4-oxothiazolidin-2-ylidene)-3-(2-fluoro-4-((E)-2-(1-(4-(trifluoromethoxy)phenyl)-1H-1,2,4-triazol-3-yl)vinyl)phenyl)urea], the mortality at 50 µg/cm2 in data set [1] and in data set [2] was 50 to 100% throughout.
`COCc1ccc(C)cc1N1C(=O)CS/C1=N\C(=O)Nc1c(F)cc(/C=C/c2ncn(-c3ccc(OC(F)(F)F)cc3)n2)cc1F` [F68, 1-(2,6-Difluoro-4-((E)-2-(1-(4-(trifluoromethoxy)phenyl)-1H-1,2,4-triazol-3-yl)vinyl)phenyl)-3-((Z)-3-(2-(methoxymethyl)-5-methylphenyl)-4-oxothiazolidin-2-ylidene)urea]: the mortality at 50 µg/cm2 in data set [1] and in data set [2] was 50 to 100% in each case.
As to `Cc1ccc(C(C)C)c(N2C(=O)CS/C2=N\C(=O)Nc2ccc(/C=C/c3ncn(-c4ccc(OC(F)(F)F)cn4)n3)cc2)c1` [F69, 1-((Z)-3-(2-isopropyl-5-methylphenyl)-4-oxothiazolidin-2-ylidene)-3-(4-((E)-2-(1-(5-(trifluoromethoxy)pyridin-2-yl)-1H-1,2,4-triazol-3-yl)vinyl)phenyl)urea], the mortality at 50 µg/cm2 in data set [1] and in data set [2] was 50 to 100% in each case.
As to `Cc1ccc(C(C)C)c(N2C(=O)CS/C2=N\C(=O)Nc2ccc(/C=C/c3ncn(-c4ccc(OC(F)(F)F)cc4)n3)cn2)c1` [F70, 1-((Z)-3-(2-isopropyl-5-methylphenyl)-4-oxothiazolidin-2-ylidene)-3-(5-((E)-2-(1-(4-(trifluoromethoxy)phenyl)-1H-1,2,4-triazol-3-yl)vinyl)pyridin-2-yl)urea], the mortality at 50 µg/cm2 in data set [1] and in data set [2] was 50 to 100% in each case.
Regarding `Cc1ccc(C(C)C)c(N2C(=O)CS/C2=N\C(=O)Nc2ccc(/C=C/c3ncn(-c4ccc(OC(F)(F)F)cn4)n3)cn2)c1` [F71, 1-((Z)-3-(2-isopropyl-5-methylphenyl)-4-oxothiazolidin-2-ylidene)-3-(5-((E)-2-(1-(5-(trifluoromethoxy)pyridin-2-yl)-1H-1,2,4-triazol-3-yl)vinyl)pyridin-2-yl)urea], the mortality at 50 µg/cm2 in data set [1] and in data set [2] was 50 to 100% in each case.
In the case of `Cc1ccc(C(C)C)c(N2C(=O)CS/C2=N\C(=O)Nc2ccc(/C=C/c3ncn(-c4ncc(C(F)(F)F)cc4Cl)n3)cc2)c1` [F72, 1-(4-((E)-2-(1-(3-chloro-5-(trifluoromethyl)pyridin-2-yl)-1H-1,2,4-triazol-3-yl)vinyl)phenyl)-3-((Z)-3-(2-isopropyl-5-methylphenyl)-4-oxothiazolidin-2-ylidene)urea], the mortality at 50 µg/cm2 in data set [1] and in data set [2] was 50 to 100% throughout.
Regarding `Cc1ccc(C(C)C)c(N2C(=O)CS/C2=N\C(=O)Nc2ccc(C3CC3c3ncn(-c4ccc(OC(F)(F)F)cc4)n3)cc2)c1` (centres unmarked) [F73, (Z)-1-(3-(2-Isopropyl-5-methylphenyl)-4-oxothiazolidin-2-ylidene)-3-(4-(2-(1-(4-(trifluoromethoxy)phenyl)-1H-1,2,4-triazol-3-yl)cyclopropyl)phenyl)urea], the mortality at 50 µg/cm2 in data set [1] and in data set [2] was 50 to 100% each time.
Consider `Cc1ccc(C(C)C)c(N2C(=O)CS/C2=N\C(=O)Nc2ccc(CCc3ncn(-c4ccc(OC(F)(F)F)cn4)n3)cc2)c1` [F74, (Z)-1-(3-(2-Isopropyl-5-methylphenyl)-4-oxothiazolidin-2-ylidene)-3-(4-(2-(1-(5-(trifluoromethoxy)pyridin-2-yl)-1H-1,2,4-triazol-3-yl)ethyl)phenyl)urea], for which the mortality at 50 µg/cm2 in data set [1] and in data set [2] was 50 to 100% each time.
With `O=C(/N=C1\SCC(=O)N1c1cccnc1)Nc1ccc(CCc2ncn(-c3ccc(OC(F)(F)F)cc3)n2)cc1` [F75, (Z)-1-(4-Oxo-3-(pyridin-3-yl)thiazolidin-2-ylidene)-3-(4-(2-(1-(4-(trifluoromethoxy)phenyl)-1H-1,2,4-triazol-3-yl)ethyl)phenyl)urea], the mortality at 50 µg/cm2 in data set [1] and in data set [2] was 50 to 100% each time.
For `O=C(/N=C1\SCC(=O)N1C1CCCCC1)Nc1ccc(/C=C/c2ncn(-c3ccc(OC(F)(F)F)cc3)n2)cc1F` [F78, 1-((Z)-3-Cyclohexyl-4-oxothiazolidin-2-ylidene)-3-(2-fluoro-4-((E)-2-(1-(4-(trifluoromethoxy)phenyl)-1H-1,2,4-triazol-3-yl)vinyl)phenyl)urea], the mortality at 50 µg/cm2 in data set [1] and in data set [2] was 50 to 100% throughout.

(Values after patent publication US9661854B2, “Molecules having pesticidal utility, and intermediates, compositions, and processes, related thereto” (Dow AgroSciences LLC, priority 2015, dated 2017).)
